pIC50: −log10 of the molar value. Read-outs that look alike come from different tables or passages of the source.
Assays:
[1] = tested on: HepG2 cells; experiment: Glu/Gal assay: cellular ATP (CellTiter-Glo) after 24 h in glucose or galactose media; conditions: for AC50 / minimal effective concentration: Homo sapiens, HepG2, 24 h
[2] = tested on: HepG2 cells; parameters: method as in PMID 18344530; conditions: 200 µM, not in Glu media; cited from earlier work
[3] = literature values, plasma or serum of adult humans when possible; ref 68-88 (per drug, Table 2 Cmax Reference); cited from earlier work
[4] = tested on: HepG2 cells; experiment: Acute extracellular flux (AEF) assay in intact HepG2 cells (Seahorse XFe96); type: cell-based, human
[5] = tested on: rPFO permeabilized HepG2 cells; experiment: Mitochondrial respiratory complexes in rPFO permeabilized HepG2 cells (Seahorse XF); conditions: Homo sapiens, HepG2, read-out: Pyruvate Respiration AC50
[6] = tested on: CI; parameters: method as in PMID 18344530; conditions: isolated mitochondria; read-out: CI inhibition IC50; cited from earlier work
[7] = tested on: complex I; parameters: method as in PMID 31104106; conditions: 50 µM, 30 min incubation; cited from earlier work
[8] = tested on: CI-linked respiration; conditions: read-out: concentration inhibiting CI-linked respiration by 50%; rat liver isolated mitochondria; cited from earlier work
[9] = tested on: HepG2 cells
[10] = tested on: rPFO permeabilized HepG2 cells
[11] = tested on: CI; parameters: method as in PMID 21120605; conditions: 50 µM, 18 h incubation, CHO cells; cited from earlier work
[12] = tested on: ADP-stimulated respiration; conditions: isolated rat liver mitochondria; cited from earlier work
[13] = tested on: liver mitochondria; parameters: method as in PMID 1347214; conditions: rats fed 1% (w/w) for 75 days; cited from earlier work
[14] = Homo sapiens, HepG2, minimum effective concentration crossing vehicle control threshold, read-out: MEC ATP Production
[15] = Homo sapiens, HepG2, minimum effective concentration crossing vehicle control threshold, read-out: MEC OCR
[16] = Homo sapiens, HepG2, minimum effective concentration crossing vehicle control threshold, read-out: MEC Reserve Capacity
[17] = Homo sapiens, HepG2, concentration at which 50% maximum effect is observed, read-out: AC50 ATP Production
[18] = Homo sapiens, HepG2, concentration at which 50% maximum effect is observed, read-out: AC50 ECAR
[19] = Homo sapiens, HepG2, concentration at which 50% maximum effect is observed, read-out: AC50 OCR
[20] = Homo sapiens, HepG2, concentration at which 50% maximum effect is observed, read-out: AC50 Proton Leak
[21] = Homo sapiens, HepG2, concentration at which 50% maximum effect is observed, read-out: AC50 Reserve Capacity
[22] = Homo sapiens, HepG2, minimum effective concentration crossing vehicle control threshold, read-out: MEC ECAR
[23] = Homo sapiens, HepG2, read-out: AC50 ATP Production
[24] = Homo sapiens, HepG2, read-out: AC50 ECAR
[25] = Homo sapiens, HepG2, read-out: AC50 OCR
[26] = Homo sapiens, HepG2, read-out: AC50 Proton Leak
[27] = Homo sapiens, HepG2, read-out: AC50 Reserve Capacity
[28] = Homo sapiens, HepG2, read-out: MEC ATP Production
[29] = Homo sapiens, HepG2, read-out: MEC OCR

Compound	AC50 ([1]; read-out: Gal AC50) [µM]	minimal effective concentration ([1]; read-out: Gal MEC) [µM]	AC50 ([1]; read-out: Glu AC50) [µM]	Cmax [3] [nM]	minimal effective concentration [4, 14] [µM]	minimal effective concentration [4, 15] [µM]	minimal effective concentration [4, 16] [µM]	AC50 [4, 17] [µM]	AC50 [4, 18] [µM]	AC50 [4, 21] [µM]	minimal effective concentration ([1]; read-out: Glu MEC) [µM]	minimal effective concentration [4, 22] [µM]	also measured
O=C1CC2(CCCC2)CC(=O)N1CCCCN1CCN(c2ncccn2)CC1 [Buspirone]	99	35.7	> 100	3	80.9	4.83	8.57	> 100	> 100	43.7	–	–	depletion (cytotoxicity) in Gal media [2]: 60%; AC50 [4, 19]: > 100 µM; AC50 [4, 20]: > 100 µM; AC50 [5]: > 100 µM; pIC50 [6]: 4.32
CN1CCN(C2=Nc3cc(Cl)ccc3Nc3ccccc32)CC1 [Clozapine]	60.8	44.4	56.7	220	37.3	–	–	> 100	> 100	–	34.1	20.2	decrease of complex I activity [7]: 85%
CNCCC(Oc1ccc(C(F)(F)F)cc1)c1ccccc1 (centres unmarked) [Fluoxetine]	17.5	12.1	13.3	40	68.6	8.12	25.2	–	–	70.4	6.89	67.3	pIC50 [8]: 3.60
O=C1Nc2ccc(Cl)cc2C(c2ccccc2Cl)=NC1O (centres unmarked) [Lorazepam]	> 100	–	> 100	100	–	–	–	–	–	–	–	–	Effect on cell viability / ATP in Glu and Gal media (in words) [9]: did not exhibit toxicity neither in glucose nor in galactose-grown cells; AC50 [4, 23]: > 100 µM; AC50 [4, 24]: > 100 µM; AC50 [4, 25]: > 100 µM; AC50 [4, 26]: 15 µM; AC50 [4, 27]: > 100 µM; minimal effective concentration [4, 28]: 3.2 µM; minimal effective concentration [4, 29]: 63.7 µM; minimal effective concentration ([4]; Homo sapiens, HepG2, read-out: MEC Proton Leak): 3.14 µM; Most sensitive mechanism / response in permeabilized HepG2 assay (OCR) [10]: did not significantly inhibit any of the ETC complexes
CN1c2ccccc2C(NCCCCCCC(=O)O)c2ccc(Cl)cc2S1(=O)=O (centres unmarked) [Tianeptine]	57.6	41.8	> 100	–	–	–	–	–	–	–	–	–	inhibition of CI activity [11]: ~50%; AC50 [4, 23]: > 100 µM; AC50 [4, 24]: > 100 µM; AC50 [4, 25]: > 100 µM; AC50 [4, 26]: > 100 µM; AC50 [4, 27]: 21.6 µM; minimal effective concentration [4, 28]: 40.3 µM; minimal effective concentration [4, 29]: 5.5 µM; minimal effective concentration ([4]; Homo sapiens, HepG2, read-out: MEC Reserve Capacity): 0.182 µM
CN1CCN(CCCN2c3ccccc3Sc3ccc(C(F)(F)F)cc32)CC1 [Trifluoperazine]	1.13	0.8	1	5	–	–	< 0.002	–	–	0.157	0.75	–	Effect on cell viability / ATP in Glu and Gal media (in words) ([1]; 24 h incubation, top concentration): complete loss of cell viability in both media; inhibition of ADP-stimulated respiration (concentration) [12]: 66 µM; minimal effective concentration ([4]; minimum effective concentration crossing vehicle control threshold, read-out: MEC Reserve Capacity): <0.002 µM
CCCC(CCC)C(=O)O [Valproic acid]	> 10000	–	> 10000	367000	5200	520	3090	> 10000	> 10000	> 10000	–	2600	decrease in the respiration rate with substrates feeding CI and CII [13]: 30%; minimal effective concentration ([4]; Homo sapiens, HepG2, minimum effective concentration crossing vehicle control threshold, read-out: MEC Proton Leak): 1140 µM; AC50 [4, 19]: > 10000 µM; AC50 [4, 20]: 9180 µM; AC50 [5]: > 10000 µM

From paper PMC10741027, “Risk Assessment of Psychotropic Drugs on Mitochondrial Function Using In Vitro Assays” (Biomedicines, 2023)
